Assays:
Type in all cases: cell-based
Proteus vulgaris = experiment: MIC against Gram-negative bacteria: Proteus vulgaris; conditions: 5×10^5 CFU/mL
In short: (§1)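 Antibacterial activity of purified human EGF domain proteins: two-fold concentration series, triplicate wells, LB broth, 5×10^5 CFU/mL bacteria, 37° C shaking incubation. The lowest concentration without growth defines the MIC.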

Serratia marcescens = experiment: MIC against Gram-negative bacteria: Serratia marcescens; conditions: 5×10^5 CFU/mL
In short: as §1

E. coli BL21 = experiment: MIC against Gram-negative bacteria: E. coli BL21; conditions: 5×10^5 CFU/mL
In short: as §1

Enterobacter cloacae = experiment: MIC against Gram-negative bacteria: Enterobacter cloacae; conditions: 5×10^5 CFU/mL
In short: as §1

Moraxella catarrhalis = experiment: MIC against Gram-negative bacteria: Moraxella catarrhalis; conditions: 5×10^5 CFU/mL
In short: as §1

Citrobacter diversus = experiment: MIC against Gram-negative bacteria: Citrobacter diversus; conditions: 5×10^5 CFU/mL
In short: as §1

Aeromonas hydrophila = experiment: MIC against Gram-negative bacteria: Aeromonas hydrophila; conditions: 5×10^5 CFU/mL
In short: as §1

Pseudomonas aeruginosa = experiment: MIC against Gram-negative bacteria: Pseudomonas aeruginosa; conditions: 5×10^5 CFU/mL
In short: as §1

Klebsiella pneumonia = experiment: MIC against Gram-negative bacteria: Klebsiella pneumonia; conditions: 5×10^5 CFU/mL
In short: as §1

Proteus mirabilis = experiment: MIC against Gram-negative bacteria: Proteus mirabilis; conditions: 5×10^5 CFU/mL
In short: as §1

E. coli DH5α = experiment: Antibacterial activity: MIC and growth curve against E. coli DH5α in 96-well plate; conditions: minimal inhibitory concentration against E. coli DH5α; 96-well plate, 5×10^5 CFU/mL, 37° C., judged after 8 h
In short: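 Log-phase bacteria (OD600 ~0.5) resuspended in LB at 5×10^5 CFU/mL, exposed to recombinant protein at 50, 25, 12.5 μg/mL final in triplicate, 37 °C shaking at 175 rpm. OD600 read every 30 min; MIC is lowest concentration showing no growth.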

[1] = E. coli BL21, 10 h cultivation at 37° C.
[2] = 10 h cultivation at 37° C., two-fold serial dilution
[3] = Proteus vulgaris, 10 h cultivation at 37° C.
[4] = Serratia marcescens, 10 h cultivation at 37° C.
[5] = Enterobacter cloacae, 10 h cultivation at 37° C.
[6] = Moraxella catarrhalis, 10 h cultivation at 37° C.
[7] = Citrobacter diversus, 10 h cultivation at 37° C.
[8] = Aeromonas hydrophila, 10 h cultivation at 37° C.
[9] = Pseudomonas aeruginosa, 10 h cultivation at 37° C.
[10] = Klebsiella pneumonia, 10 h cultivation at 37° C.
[11] = Proteus mirabilis, 10 h cultivation at 37° C.

## PRT157 (VADPCASNPCHHGNCSSSSSSSSDGYLCICNEGYEGPNCE; listed as Homo sapiens)
Proteus vulgaris; 10 h cultivation at 37° C.
  MIC (μg/mL) P. vulgaris: 12.5 µg/mL
Serratia marcescens; 10 h cultivation at 37° C.
  MIC (μg/mL) S. marcescens: 12.5 µg/mL
E. coli BL21; [1]
  MIC (μg/mL) E. coli BL21: 50 µg/mL
Enterobacter cloacae; 10 h cultivation at 37° C.
  MIC (μg/mL) E. cloacae: 25 µg/mL
Moraxella catarrhalis; 10 h cultivation at 37° C.
  MIC (μg/mL) M. catarrhalis: 12.5 µg/mL
Citrobacter diversus; 10 h cultivation at 37° C.
  MIC (μg/mL) C. diversus: 12.5 µg/mL
Aeromonas hydrophila; 10 h cultivation at 37° C.
  MIC (μg/mL) A. hydrophila: 12.5 µg/mL
Pseudomonas aeruginosa; 10 h cultivation at 37° C.
  MIC (μg/mL) P. aeruginosa: 25 µg/mL
Klebsiella pneumonia; 10 h cultivation at 37° C.
  MIC (μg/mL) K. pneumonia: 12.5 µg/mL
Proteus mirabilis; 10 h cultivation at 37° C.
  MIC (μg/mL) P. mirabilis: 12.5 µg/mL
E. coli DH5α
  MIC: 12.5 µg/mL

## PRT1326 (AINACEISNGGCSAKADCKRTTPGRRVCTCKAGYTGDGIVCL; listed as Homo sapiens)
Proteus vulgaris; Proteus vulgaris, 96-well plate, 37° C., 10 h
  MIC against P. vulgaris: 25 µg/mL
Serratia marcescens; Serratia marcescens, 96-well plate, 37° C., 10 h
  MIC against S. marcescens: 50 µg/mL
E. coli BL21; E. coli BL21, 96-well plate, 37° C., 10 h
  MIC against E. coli BL21: 12.5 µg/mL
Enterobacter cloacae; Enterobacter cloacae, 96-well plate, 37° C., 10 h
  MIC against E. cloacae: 50 µg/mL
Moraxella catarrhalis; Moraxella catarrhalis, 96-well plate, 37° C., 10 h
  MIC against M. catarrhalis: 25 µg/mL
Citrobacter diversus; Citrobacter diversus, 96-well plate, 37° C., 10 h
  MIC against C. diversus: 50 µg/mL
Aeromonas hydrophila; Aeromonas hydrophila, 96-well plate, 37° C., 10 h
  MIC against A. hydrophila: 12.5 µg/mL
Pseudomonas aeruginosa; Pseudomonas aeruginosa, 96-well plate, 37° C., 10 h
  MIC against P. aeruginosa: 50 µg/mL
Klebsiella pneumonia; Klebsiella pneumonia, 96-well plate, 37° C., 10 h
  MIC against K. pneumonia: 12.5 µg/mL
Proteus mirabilis; Proteus mirabilis, 96-well plate, 37° C., 10 h
  MIC against P. mirabilis: 12.5 µg/mL
E. coli DH5α
  MIC: 50 µg/mL

## PRT1086 (HFKPCRDKDLAYCLNDGECFVIETLTGSHKHCRCKEGYQGVRCD; listed as Homo sapiens)
Proteus vulgaris; [2]
  MIC P. vulgaris: 50 µg/mL
Serratia marcescens; [2]
  MIC S. marcescens: 12.5 µg/mL
E. coli BL21; [2]
  MIC E. coli BL21: 25 µg/mL
Enterobacter cloacae; [2]
  MIC E. cloacae: 12.5 µg/mL
Moraxella catarrhalis; [2]
  MIC M. catarrhalis: 25 µg/mL
Citrobacter diversus; [2]
  MIC C. diversus: 50 µg/mL
Aeromonas hydrophila; [2]
  MIC A. hydrophila: 25 µg/mL
Pseudomonas aeruginosa; [2]
  MIC P. aeruginosa: 50 µg/mL
Klebsiella pneumonia; [2]
  MIC K. pneumonia: 25 µg/mL
Proteus mirabilis; [2]
  MIC P. mirabilis: 12.5 µg/mL
E. coli DH5α
  MIC: 12.5 µg/mL

## PRT519 (CQCNDNLDFSIPGSCDSLSGSCLICKPGTTGRYCELCADGYFGDAVDAKNCQP; listed as Homo sapiens)
Proteus vulgaris; 96-well plate, 37° C., 10 h
  MIC against P. vulgaris: 25 µg/mL
Serratia marcescens; 96-well plate, 37° C., 10 h
  MIC against S. marcescens: 12.5 µg/mL
E. coli BL21; 96-well plate, 37° C., 10 h
  MIC against E. coli BL21: 12.5 µg/mL
Enterobacter cloacae; 96-well plate, 37° C., 10 h
  MIC against E. cloacae: 12.5 µg/mL
Moraxella catarrhalis; 96-well plate, 37° C., 10 h
  MIC against M. catarrhalis: 25 µg/mL
Citrobacter diversus; 96-well plate, 37° C., 10 h
  MIC against C. diversus: 12.5 µg/mL
Aeromonas hydrophila; 96-well plate, 37° C., 10 h
  MIC against A. hydrophila: 25 µg/mL
Pseudomonas aeruginosa; 96-well plate, 37° C., 10 h
  MIC against P. aeruginosa: 12.5 µg/mL
Klebsiella pneumonia; 96-well plate, 37° C., 10 h
  MIC against K. pneumonia: 25 µg/mL
Proteus mirabilis; 96-well plate, 37° C., 10 h
  MIC against P. mirabilis: 12.5 µg/mL
E. coli DH5α
  MIC: 25 µg/mL

## PRT1382 (GVRSCPRGCSQRGRCKDGRCVCDPGYTGEDC; listed as Homo sapiens)
Proteus vulgaris; [3]
  MIC against P. vulgaris: 25 µg/mL
Serratia marcescens; [4]
  MIC against S. marcescens: 12.5 µg/mL
E. coli BL21; [1]
  MIC against E. coli BL21: 12.5 µg/mL
Enterobacter cloacae; [5]
  MIC against E. cloacae: 50 µg/mL
Moraxella catarrhalis; [6]
  MIC against M. catarrhalis: 12.5 µg/mL
Citrobacter diversus; [7]
  MIC against C. diversus: 50 µg/mL
Aeromonas hydrophila; [8]
  MIC against A. hydrophila: 12.5 µg/mL
Pseudomonas aeruginosa; [9]
  MIC against P. aeruginosa: 50 µg/mL
Klebsiella pneumonia; [10]
  MIC against K. pneumonia: 100 µg/mL
Proteus mirabilis; [11]
  MIC against P. mirabilis: 12.5 µg/mL
E. coli DH5α
  MIC: 25 µg/mL

## PRT853 (DLNECGLKPRPCKHRCMNTYGSYKCYCLNGYMLMPDGSCS; listed as Homo sapiens)
Proteus vulgaris; 10 h cultivation at 37° C.
  MIC (μg/mL) P. vulgaris: 25 µg/mL
Serratia marcescens; 10 h cultivation at 37° C.
  MIC (μg/mL) S. marcescens: 12.5 µg/mL
E. coli BL21; [1]
  MIC (μg/mL) E. coli BL21: 12.5 µg/mL
Enterobacter cloacae; 10 h cultivation at 37° C.
  MIC (μg/mL) E. cloacae: 25 µg/mL
Moraxella catarrhalis; 10 h cultivation at 37° C.
  MIC (μg/mL) M. catarrhalis: 50 µg/mL
Citrobacter diversus; 10 h cultivation at 37° C.
  MIC (μg/mL) C. diversus: 25 µg/mL
Aeromonas hydrophila; 10 h cultivation at 37° C.
  MIC (μg/mL) A. hydrophila: 12.5 µg/mL
Pseudomonas aeruginosa; 10 h cultivation at 37° C.
  MIC (μg/mL) P. aeruginosa: 25 µg/mL
Klebsiella pneumonia; 10 h cultivation at 37° C.
  MIC (μg/mL) K. pneumonia: 50 µg/mL
Proteus mirabilis; 10 h cultivation at 37° C.
  MIC (μg/mL) P. mirabilis: 25 µg/mL
E. coli DH5α
  MIC: 25 µg/mL

## PRT1441 (EVDECSWPDHGGCEHRCVNTLGSYKCACDPGYELAADKKMCE; listed as Homo sapiens)
Proteus vulgaris; [3]
  MIC against P. vulgaris: 25 µg/mL
Serratia marcescens; [4]
  MIC against S. marcescens: 12.5 µg/mL
E. coli BL21; [1]
  MIC against E. coli BL21: 25 µg/mL
Enterobacter cloacae; [5]
  MIC against E. cloacae: 12.5 µg/mL
Moraxella catarrhalis; [6]
  MIC against M. catarrhalis: 12.5 µg/mL
Citrobacter diversus; [7]
  MIC against C. diversus: 100 µg/mL
Aeromonas hydrophila; [8]
  MIC against A. hydrophila: 25 µg/mL
Pseudomonas aeruginosa; [9]
  MIC against P. aeruginosa: 12.5 µg/mL
Klebsiella pneumonia; [10]
  MIC against K. pneumonia: 25 µg/mL
Proteus mirabilis; [11]
  MIC against P. mirabilis: 12.5 µg/mL
E. coli DH5α
  MIC: 25 µg/mL
